Measured values: patent US20230372433A1, “NANOPARTICLE FOR ANTI-CANCER PEPTIDES AND USES THEREOF” (KING'S COLLEGE LONDON, priority 2020, published 2023)

Tests used:
[1] = system: HMLER-shEcad (human breast cancer stem cell); assay: MTT cytotoxicity assay, HMLER-shEcad; type: cell-based; conditions: 72 hr, MTT; read-out: IC50 HMLER-shEcad
[2] = ANTS/DPX liposome leakage assay, 3POPC/1POPG vesicles; type: biochemical; conditions: 0.5 mM vesicles
Experimental: (§1) In brief, 0.5 mM POPC vesicles (grey) or POPC:POPG vesicles (ratio 3:1, black) were incubated with peptide concentrations of 0, 0.02, 0.04, 0.08, 0.16, 0.32, 0.64, 1.25, 2.5, 5, 10, and 20 μM in each A) hydrochloric acid-adjusted phosphate buffered saline (1X, pH 4.8) and B) phosphate buffered saline (1X, pH 7.4).
(§2) The lipids 1-palmitoyl-2-oleoyl-sn-glycero-3-phosphocholine (POPC), 1-palmitoyl-2-oleoyl-snglycero-3-phospho-(1′-rac-glycerol) (POPG) were purchased from Avanti Polar Lipids and dissolved in chloroform. Large unilamellar vesicles (LUVs) were produced by extrusion through 100 nm pore filter using an extruder and filters purchased from Avanti Polar Lipids.
(§3) 5 mM ANTS (8-aminonaphthalene-1,3,6-trisulfonic acid, disodium salt) and 12.5 mM DPX (p-xylene-bis-pyridinium bromide) were entrapped in 0.1 μm diameter extruded vesicles with lipids. Gel filtration chromatography using a Sephadex G-100 (GE Healthcare Life Sciences Inc) was used to remove external free ANTS/DPX from LUVs with entrapped contents. LUVs were diluted to 0.5 mM and used to measure the leakage activity by addition of aliquots of peptides. Leakage was measured after 3 h incubation. 10% Triton was used as the positive control to measure the maximum leakage of the vesicle. Fluorescence emission spectra were recorded using excitation and emission wavelength of 350 nm and 510 nm for ANTS/DPX using a BioTek Synergy H1 Hybrid Multi-Mode Reader.
(§4) Table 4 illustrates peptide concentration-induced 50 ANTS/DPX liposome leakage. 0.5 mM POPC and 3POPC/1POPG vesicles were fixed and incubated with titrated peptide concentration (0, 0.02, 0.04, 0.08, 0.16, 0.32, 0.64, 1.25, 2.5, 5, 10, and 20 μM) each in phosphate buffered saline (1X, pH 7.4) and hydrochloric acid-adjusted phosphate buffered saline (1X, pH 4.8). The values are shown as lipid per peptide. IN-terminus is free, C-terminus: —W—NH2.

[3] = Tryptophan fluorescent binding assay, POPC vesicles; conditions: 50 μM peptide, PBS pH 7.4
Experimental: (§5) In brief, 50 μM peptides were fixed and incubated with titrated POPC vesicles (black) or 3POPC/1POPG vesicles (grey) at concentrations of 0, 12.5, 25, 50, 100, 250, 500, 1000, 2500, and 5000 μM in phosphate buffered saline (1X, pH 7.4). The lipid concentration that causes 50% peptide binding was determined using a tryptophan fluorescent binding assay and the values are shown as lipid per peptide.
as §2
(§6) Peptides (50 μM) and POPC/POPG LUVs (600 μM) were prepared in 10 mM phosphate buffer (pH 7.0). The solutions were incubated and measured after 60 minutes. Excitation was fixed at 280 nm (slit 9 nm) and emission was collected from 300 to 450 nm (slit 9 nm). The spectra were recorded using a Synergy H1 Hybrid Multi-Mode Reader (FIG. 3A) and Cytation™ 5 Cell Imaging Multi-Mode Reader (FIG. 2) from BioTek and were averaged over 3 scans.
(§7) Table 3 illustrates the lipid concentration-induced 50% peptide binding onto a liposome. 50 μM peptide was fixed and incubated with titrated lipid (POPC vesicles or 3POPC/1POPG vesicles) at concentrations of 0, 12.5, 25, 50, 100, 250, 500, 1000, 2500, and 5000 μM in phosphate buffered saline (1X, pH 7.4). The lipid concentration that causes 50% peptide binding was determined using tryptophan fluorescent binding assay and the values are shown as lipid per peptide. IN-terminus is free, C-terminus: —W—NH2.

[4] = system: MCF-10A (human breast epithelial cell); assay: cells; conditions: read-out: IC50 MCF-10A; 72 hr, MTT
Excerpt: HMLER (human mammary endothelial cancer cells), HMLER-shEcad (human mammary endothelial cancer stem cells), and MCF-10A (healthy human mammary endothelial) cells were maintained in Mammary Epithelial Cell Growth Medium (MEGM) with supplements and growth factors: bovine pituitary extract (BPE), hydrocortisone, human epidermal growth factor (hEGF), insulin, and gentamicin/amphotericin-B. HEK293T (human embryonic kidney cell), and U2OS (homo sapiens bone osteosarcoma) cells were maintained in Dulbecco's Modified Eagle's Medium (DMEM) with a final concentration of 10% fetal bovine serum. The cells were grown in T75 flask at 310 K in a humidified atmosphere containing 5% CO2.
The colourimetric MTT (3-(4,5-dimethylthiazol-2-yl)-2,5-diphenyltetrazolium bromide) assay was used to determine the toxicity of the anti-cancer peptides and conventional anti-cancer drugs. 5×10^3 cells were seeded in each well of a 96-well microplate. The cells were incubated overnight. Elevated concentrations of the compounds (0, 0.1, 0.2, 0.4, 0.8, 1.6, 3.1, 6.3, 12.5, 25, 50 and 100 μM) were added and incubated for 72 hr with a total volume 200 μL. The stock solutions of the compounds were prepared as 5 mM solutions in DMSO and diluted using media or in pure water. The final concentration of DMSO in each well was either 0.5% or 0% and this amount was present in the untreated control. After 72 hr, 20 μL of a 4 mg/mL solution of MTT in PBS was added to each well, and the plate was incubated for an additional 4 hr. The MEGM/MTT mixture was aspirated and 100 μL of DMSO was added to dissolve the resulting purple formazan crystals. The absorbance of the solutions in each well was read at 550 nm wavelength. Absorbance values were normalized to either DMSO-containing or non DMSO-containing control wells and plotted as concentration of test compound versus % cell viability. ICso values were interpolated from the resulting dose dependent curves.
The peptides were screened against several different human cell lines and their cytotoxicity were determined. Cell lines utilised include MCF-10A (human breast epithelial cell), HMLER (human breast cancer bulk cell), HMLER-shEcad (human breast cancer stem cell), HEK293T (human embryonic kidney cell), and U2OS (human bone osteosarcoma).

[5] = Tryptophan fluorescent binding assay, 3POPC/1POPG vesicles; conditions: 50 μM peptide, PBS pH 7.4
Experimental: as §5, §2, §6, §7

[6] = system: HEK293T (human embryonic kidney cell); assay: MTT cytotoxicity assay, HEK293T; type: cell-based; conditions: 72 hr, MTT; read-out: IC50 HEK293T
[7] = system: HMLER (human breast cancer bulk cell); assay: MTT cytotoxicity assay, HMLER; type: cell-based; conditions: 72 hr, MTT; read-out: IC50 HMLER
[8] = system: U2OS (human bone osteosarcoma); assay: MTT cytotoxicity assay, U2OS; type: cell-based; conditions: 72 hr
[9] = ANTS/DPX liposome leakage assay, POPC vesicles; type: biochemical; conditions: 0.5 mM vesicles
Experimental: as §1, §2, §3, §4

Sequence	IC50 [1] [µM]	Peptide Concentration-induced 50% ANTS/DPX leakage at pH 4.8 (L/P) 3POPC/1POPG Vesicle [2] [L/P]	Peptide Concentration-induced 50% ANTS/DPX leakage at pH 7.4 (L/P) 3POPC/1POPG Vesicle [2] [L/P]	Lipid Concentration-induced 50% Peptide Binding (L/P) POPC Vesicle [3] [L/P]	IC50 [4] [µM]	Lipid Concentration-induced 50% Peptide Binding (L/P) 3POPC/1POPG Vesicle [5] [L/P]	IC50 [6] [µM]	IC50 [7] [µM]	IC50 [8] [µM]	Peptide Concentration-induced 50% ANTS/DPX leakage at pH 4.8 (L/P) POPC Vesicle [9] [L/P]	Peptide Concentration-induced 50% ANTS/DPX leakage at pH 7.4 (L/P) POPC Vesicle [9] [L/P]
GLLHLLKLLLEAAG [HKE]	1.9 ± 0.42	94	365	0.75	7.6 ± 0.42	0.25	5.15 ± 0.64	2.7 ± 0.28	16 ± 0.78	173	692
GLLHLLHLLLHAAG [HHH]	9.5 ± 0.99	50	469	0.46	79 ± 11.3	0.82	30.6 ± 4.81	21.1 ± 6.93	–	173	1133
GLLDLLHLLLEAAG [DHE]	2.8 ± 0.14	469	581	1.00	22.7 ± 4.31	0.72	11.1 ± 1.91	3.75 ± 0.92	17.2 ± 1.06	58	566
GLLHLLELLLEAAG [HEE]	4.95 ± 0.49	122	792	0.58	58 ± 41	0.50	10.2 ± 0.2	6.5 ± 0.71	47.5 ± 11	100	876
GLLHLLELLLHAAG [HEH]	11 ± 1.06	24	505	0.88	–	3.50	8.8 ± 1.7	28.6 ± 10.8	–	173	995
GLLDLLKLLLEAAG [DKE]	1.57 ± 0.33	469	411	0.56	4.75 ± 0.49	0.46	7.8 ± 1.41	2.1	9.93 ± 0.25	21	747
GLLDLLHLLLKAAG [DHK]	1.02 ± 0.12	183	469	0.20	5.05 ± 1.34	0.38	7.3 ± 0.42	1.75 ± 0.49	20.4 ± 2.05	47	747
GLDDLAKLLLKLAG [25B2, reference compound]	11.7 ± 0.49	–	–	–	26.7 ± 3.33	–	25.2 ± 2.19	8.36 ± 0.61	54 ± 8.43	–	–
GLLELLHLLLHAAG [EHH]	16.1 ± 3.18	80	981	0.94	–	0.69	5.9 ± 0.14	25.4 ± 2.76	–	386	1043
GLLDLLHLLLHAAG [DHH]	11.9 ± 0.14	98	692	0.67	–	0.28	6.4 ± 0.42	21.4 ± 2.47	55.9 ± 18.9	106	684
GLLHLLHLLLEAAG [HHE]	10.8 ± 0.78	113	411	1.00	–	0.75	18.4 ± 3.75	16.7 ± 2.26	53.2 ± 5.3	143	842
GLLHLLELLLKAAG [HEK]	3.45 ± 2.19	411	386	0.44	29.8 ± 7.35	0.46	6.95 ± 1.63	2.35 ± 1.06	–	97	755
